Measurements: patent US20250000874A1, “BACTERIAL METABOLITES AND THEIR USE IN REDUCING INFLAMMATION” (LOYOLA UNIVERSITY OF CHICAGO, priority 2023, published 2025)
Entries after “also recorded” stand apart in the source; their conditions may differ.

Assays:
Raw 264.7 Cells [1] = assay: NC on TNFα release in Raw 264.7 cells in response to TLR agonists; type: cell-based, mouse; conditions: 50 μM NC 18 hours
Description: FIG. 27A and FIG. 27B. Metabolite NC on TNFα release in response to LPS in human and murine macrophages in vitro. Macrophages were plated at a uniform density of 0.2×10^6 cells/mL in 24 well plates. These cells (FIG. 27A) were allowed to adhere, or, in the case of THP-1 cells FIG. 27B), differentiate using PMA. They were then treated for 18 hours with 50 μM of metabolite NC before being stimulated with 0.1 ug of LPS-EK. Supernatant was collected between 4-6 hours after addition of LPS and debris was removed via centrifugation at 1250 rpm for 5 minutes. TNFα was quantified in the supernatant using sandwich ELISA with standards of known concentrations.
FIG. 28A and FIG. 28B. Metabolite NC on TNFα release in macrophages in response to various TLR agonists. Raw 264.7 cells (FIG. 28A) and THP-1 FIG. 28B) cells were plated at a uniform density of 0.2×10^6 cells per mL and stimulated with various TLR agonists: Pam3CSK4, Poly I:C, LPS, Fla, FSL-1, imiquimod (ImiQ), and ODN-2006. NC reduced TNFα release in response to TLR3 (p<0.0001 via student's t-test for both Raw 264.7 cells and THP-1 cells) and TLR4 agonists in both cell lines.
To investigate the effects of compound NC, macrophages were stimulated with LPS, an endotoxin associated with gram-negative bacteria. Human and murine macrophage-like cells (THP-1 cells and Raw 264.7 cells, respectively) were plated in 24 well plates at a uniform density of 0.2×10^6 cells/mL. Following 18 hours of pretreatment with 50 μM metabolite NC, they were stimulated with 10 μg/mL of LPS. After 4-6 hours, supernatant was collected and TNFα was quantified using sandwich ELISA. NC reduces TNFα release from both THP-1 and Raw 264.7 macrophage-like cells in response to TLR4 agonist LPS in vitro.
Metabolite NC reduces inflammation in response to TLR4 agonist LPS. To further investigate the specificity of NC's action in TLR signaling, Raw 264.7 (FIG. 28A) and THP-1 (FIG. 28B) cells were once again plated at a uniform density of 0.2×10^6 cells/mL, treated with 50 μM metabolite NC for 18 hours, and stimulated with agonists for TLR1/2, TLR3, TLR4, TLR5, TLR6/2, TLR7 and TLR9. After 4-6 hours, supernatant was collected and TNFα was quantified via sandwich ELISA.

macrophages = assay: NC on other TLR pathways, macrophages (Example 7); type: cell-based; conditions: PAM3CSK4, Flagellin, Imiquimod, ODN2006; various concentrations
Description: Once ready, macrophages were then incubated with NC at a concentration of 50 uM overnight. The following day they were treated with P(I:C) at 50 ug/mL, 100 ug/mL, or 200 ug/mL, with LPS at 1 ng/ml or 10 ng/ml, or FSL at a concentration of 20 ng/ml or 50 ng/mL. Samples were treated for 4 hours and then Supernatant was then collected and the concentration of TNFα was then determined via the commercially available ELISA MAX Deluxe kit (Biolegend), with measurements reported in pg/mL.
Further investigation of NC's impact on TLR signaling involved treating BMDMs with the TLR 4 agonist LPS. Following overnight treatment with NC cells were treated with LPS at a concentration of 1 ng/ml and 10 ng/ml. After 4 hours supernatant was collected and concentration of TNFα was measured via ELISA. […] Additionally, we explored NCs effects on other TLR agonists. […] We investigated NCs effects on various other TLR pathways including: ½ (PAM3CSK4), TLR 5 (Flagellin), TLR 7 (Imiquimod), and TLR 9 (ODN2006).

Raw 264.7 Cells [2] = assay: JE on TNF-α and IL-6 production by Raw 264.7 cells upon TLR agonists; type: cell-based, mouse; conditions: for decrease in TNF-α production: vs untreated macrophages
Description: (§1) FIG. 13. The Effect of JE on TNF-α Production by Raw 264.7 Cells Upon Stimulation with TLR Agonists. Macrophages were incubated overnight with JE at a concentration of 50 μM at t 37° C., 5% CO2. The following day, the macrophages were stimulated with 10 ng/ml of LPS, 1 μg/ml of FLG-St, 3 μg/ml of PAM-3csk, 1 μM of ODN and 20 μg/ml of Poly: IC for 3 hours. Supernatants were collected, and TNF-α was measured by ELISA. The data are presented as mean±SEM (n=6). *p<0.05; **p<0.01; ***p<0.001. One of three experiments is shown.
FIG. 14. The Effect of JE on TNF-α Production by Raw 264.7 Cells Upon Stimulation with TLR Agonists. Macrophages were incubated overnight with JE at a concentration of 50 μM at 37° C., 5% CO2. The following day, the macrophages were stimulated with 1 μg/ml of FSL-1 2 μg/ml of Imiquimod for 3 hours. Supernatants were collected and TNF-α was measured by ELISA. Data are presented as mean±SEM (n=6). *p<0.05; **p<0.01; ***p <0.001. One of three experiments is shown.
as §1, with “15.” for “13.”, “IL-6” for “TNF-α”, “TLR agonists at the same concentrations that I used” for “10 ng/ml of LPS, 1 μg/ml of FLG-St, 3 μg/ml of PAM-3csk, 1 μM of ODN and 20 μg/ml of Poly: IC”, “TNF-α induction.” for “3 hours.”
Murine macrophages, both RAW 264.7 macrophages and bone marrow-derived macrophages (BMDMs), were seeded and then pretreated overnight with the metabolite JE. The following day, the macrophages were stimulated with one of TLR agonists, including LPS, FLA-ST, ODN, Pam3SCK4, Poly: IC LMW, FSL, and Imiquimod for 3 hours, then the production of TNF-α, and IL-6 in the culture supernatants was measured by ELISA.

[3] = JE 50 μM overnight, TLR agonists 3 hours, vs media with TLR agonists

| Structure (SMILES) | TNFα release in response to TLR3 agonist Poly I:C (Raw 264.7 Cells [1]; 4-6 hours, ELISA) | TNFα release in response to TLR4 agonist LPS (Raw 264.7 Cells [1]; LPS, 4-6 hours, ELISA) | TNFα release in the absence of LPS stimulation (Raw 264.7 Cells [1]; unstimulated) | TNFα release in response to other TLR agonists (Raw 264.7 Cells [1]; TLR1/2, TLR5, TLR6/2, TLR7, TLR9 agonists) | cytokine production, other TLR pathways (macrophages) | decrease in TNF-α production (Raw 264.7 Cells [2]; JE 50 μM overnight, TLR 1/2 agonist PAM-3CSK) [fold] | TNF-α secretion (Raw 264.7 Cells [2]; JE 50 μM overnight, TLR2/6 agonist FSL-1) | TNF-α production (Raw 264.7 Cells [2]; JE 50 μM overnight, TLR4 agonist LPS) | decrease in TNF-α production (Raw 264.7 Cells [2]; JE 50 μM overnight, TLR 5 agonist FLG-ST) [fold] | TNF-α production (Raw 264.7 Cells [2]; JE 50 μM overnight, TLR7 agonist Imiquimod) | production of IL-6 (Raw 264.7 Cells [2]; [3]) | production of TNF-α (Raw 264.7 Cells [2]; [3]) | TNF-α secretion (Raw 264.7 Cells [2]; JE 50 μM overnight, TLR-3 agonist Poly: IC LMW) | decrease in IL-6 secreted (Raw 264.7 Cells [2]; JE pretreatment, LPS, relative to untreated macrophages) [fold] |
| --- | --- | --- | --- | --- | --- | --- | --- | --- | --- | --- | --- | --- | --- | --- |
| CCCCCCCCCCCCCCCC(=O)N[C@@H](C(=O)O)[C@H](C)O [NC, N-Palmitoyl-D-Threonine] | reduced | reduced; also recorded: significantly less | did not increase; also recorded: does not increase | did not significantly reduce | did not exhibit any significant inhibitory effects |  |  |  |  |  |  |  |  |  |
| CC(=O)O[C@@H]1CC[C@H]2[C@H]3CC[C@H]4CC(F)(F)CC[C@]4(C)[C@H]3CC[C@]12C [JE, 3,3-Difluoro-5-alpha-androstan-17-beta-yl acetate] |  |  |  |  |  | 4 | completely abolished | reduced | 4 | reduced | significantly reduced | significantly reduced | completely abolished | 4 |
